The values that follow come from patent US8222004B2, “Diagnosis and treatment of autism using CD38” (National University Corporation Kanazawa University, priority 2006, dated 2012).

Data set [1] has as its system postpartum female CD38−/− mice. The data set is described as follows: Maternal behaviors of postpartum female mice (pup retrieval, crouching) after subcutaneous peptide administration. The format is in vivo, mouse. As to conditions: once, 1 to 10 ng/kg. The method, then: Then, each mother mouse was put back at a corner of a cage, and the pups were placed at remaining 3 corners. In this state, behaviors of the mother mouse were observed. A latency to retrieve each pup and a duration of crouching over 3 pups were also measured.
According to a previously described method (Boccia, M. M., et al., Neurobiol. Learn. Memory 69, 136-146 (1998)), oxytocin (OT) or vasopressin (AVP) dissolved in 0.05 M acetic acid was adjusted to 0.01 μM with saline, and this solution was subcutaneously administered once at a dose of 1 to 10 ng/kg body weight […] to the postpartum female CD38−/− mice (N=6 to 8) described above and young male mice (N=10 per group).

The test system of data set [2] is male CD38−/− and wild-type mice. Put plainly: Social memory of male mice (olfactory investigation time on repeated encounters). The format is in vivo, mouse. Particulars: subcutaneous, once, 1 to 10 ng/kg; for social memory (olfactory investigation): young male CD38−/− mice.
For the next data set, the system named is students. Particulars: 194 students, intranasal administration, versus placebo; cited from earlier work.
Data set [3] has as its system pituitary nerve terminals. Put plainly: Oxytocin release from isolated pituitary nerve terminals (in vitro). The format is cell-based, mouse. How it is done: (§1) Cell bodies of hypothalamic neurons and nerve terminals were isolated according to a previously described method (OuYang, W., et al., Brain Res. 1024, 203-21.1 (2004)), then washed with a Locke solution, and homogenized in a solution containing sucrose, 270; HEPES-Tris, 10; and K-EGTA, 0.01 (in mM, pH 7.25). The homogenates were transferred to Petri dishies and left standing for 5 to 8 minutes.
Isolated cells and nerve terminals were left standing for 6 hours, and then, an experiment was started. The specimens were perfused for 45 minutes, and the perfusate was collected at last 5-minute intervals three times in total for control concentration measurement. Subsequently, the specimens were perfused for additional 5 minutes with Locke solution containing 70 mmol of KC1, and oxytocin concentrations in the obtained perfusates were determined using an oxytocin determination kit and considered as concentrations of oxytocin released by depolarization stimulation.

The test system of another data set is isolated nerve terminals. Put plainly: Intracellular Ca2+ concentration in isolated nerve terminals (Oregon Green). The format is cell-based, mouse. Particulars: wild-type mice; 50 mM KCl. How it is done: as §1
The cells were incubated with Oregon Green for 1 hour to incorporate the dye into the cells. Subsequently, a fluorescence intensity of the cells was measured using an excitation wavelength of 485 nm and a filter of 538 nm. A fluorescence microspectrophotometer and a condenser with an ARGUS-50 CCD camera were used for the measurement.

Data set [4] addresses ADP-ribosyl cyclase activity (Homo sapiens, UniProt P28907, R140W). Particulars: mutated CD38 found in human diabetes; cited from earlier work.

Chain of ADP-ribosyl cyclase activity (P28907 whole entry R140W): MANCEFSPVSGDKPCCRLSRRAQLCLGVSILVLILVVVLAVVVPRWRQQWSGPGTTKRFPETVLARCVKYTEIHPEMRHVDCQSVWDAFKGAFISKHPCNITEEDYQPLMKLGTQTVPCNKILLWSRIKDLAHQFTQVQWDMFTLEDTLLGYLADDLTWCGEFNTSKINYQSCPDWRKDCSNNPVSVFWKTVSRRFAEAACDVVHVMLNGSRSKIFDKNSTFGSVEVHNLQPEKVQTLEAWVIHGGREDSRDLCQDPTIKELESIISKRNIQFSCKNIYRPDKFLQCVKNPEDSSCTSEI

Regarding `CC[C@H](C)[C@@H]1NC(=O)[C@H](Cc2ccc(O)cc2)NC(=O)[C@@H](N)CSSC[C@@H](C(=O)N2CCC[C@H]2C(=O)N[C@@H](CC(C)C)C(=O)NCC(N)=O)NC(=O)[C@H](CC(N)=O)NC(=O)[C@H](CCC(N)=O)NC1=O` [oxytocin], in data set [1], the “maternal behaviors (latency to retrieve pups, duration of crouching)” value is on record as “recovered to same levels of maternal behaviors as those of the wild-type mice”. Besides, in data set [2], the “change in behaviors of wild-type mice” value is listed as “no change” and the “social memory (olfactory investigation)” value was “recovered a social memory”. The “investment in an investment game (trust, prosocial behavior)” value in the data set with students was “invested more money and more frequently invested a maximum allowable than the placebo group”.
Consider `CO/C1=C\C(C)=C\[C@@H](C)[C@@H](O)[C@@H](C)C/C(C)=C/C=C/[C@H](OC)[C@@H]([C@@H](C)[C@@H](O)[C@H](C)[C@@]2(O)C[C@@H](O)[C@H](C)[C@@H](C(C)C)O2)OC1=O` [bafilomycin], for which, in data set [3] (wild-type mice, 2 μM, high-potassium depolarization), the “oxytocin release from the pituitary nerve terminals” value is listed as “decreased to same levels as those in the CD38−/− mice”.
As to ryanodine, in data set [3] (wild-type mice, 200 μM, high-potassium depolarization), the “oxytocin release from the pituitary nerve terminals” value was “decreased to same levels as those in the CD38−/− mice”. Moreover, in the data set on isolated nerve terminals, the “increase in intracellular Ca2+ concentration” value is “significantly inhibited”.
`Nc1ncnc2c1ncn2[C@@H]1O[C@H](COP(=O)(O)OP(=O)(O)OCC2OC([n+]3cccc(C(=O)[O-])c3)C(O)C2O)[C@@H](O)[C@H]1OP(=O)(O)O` (stereo in doubt) [NAADP, nicotinate adenine dinucleotide phosphate]: in data set [3] (all the mice, initially stimulated with Ca2+, 100 nM given outside the cells), the “oxytocin release from the pituitary nerve terminals” value is listed as “promoted”.
Take `N=c1c2ncn3c2ncn1[C@@H]1O[C@H](COP(=O)(O)OP(=O)(O)OC[C@H]2O[C@@H]3[C@H](O)[C@@H]2O)[C@@H](O)[C@H]1O` [cADPR, cyclic ADP-ribose]: the “increase of oxytocin release” value in data set [3] (CD38−/− mice, pituitary nerve terminals, 10 μM) is reported as 2.5 fold. Also, in data set [3] (all the mice, initially stimulated with Ca2+, 10 μM given outside the cells), the “oxytocin release from the pituitary nerve terminals” value is “promoted”.
With “mutated CD38: human CD38 with substitution of tryptophan for arginine at position 140, found in human diabetes”, the “ADP-ribosyl cyclase activity relative to normal” value in data set [4] is on record as “about ⅓”.
Turning to `NC(=O)CC[C@@H]1NC(=O)[C@H](Cc2ccccc2)NC(=O)[C@H](Cc2ccc(O)cc2)NC(=O)[C@@H](N)CSSC[C@@H](C(=O)N2CCC[C@H]2C(=O)N[C@@H](CCCN=C(N)N)C(=O)NCC(N)=O)NC(=O)[C@H](CC(N)=O)NC1=O` [vasopressin], in data set [2], the “change in behaviors of wild-type mice” value is given as “no change” and the “social memory (olfactory investigation)” value is listed as “no detectable change”.
Take 8-bromo-cADPR: in data set [3] (wild-type mice, 100 μM, high-potassium depolarization), the “oxytocin release from the pituitary nerve terminals” value is listed as “decreased to same levels as those in the CD38−/− mice”. Moreover, in the data set with isolated nerve terminals, the “increase in intracellular Ca2+ concentration” value is reported as “significantly inhibited”.
